Data reported in the NIST ThermoML archive (doi:10.1016/j.fluid.2016.07.018).
± gives the expanded uncertainty stated by the source.

Settings: Liquid
[1] = 313.15 K, gas saturation method
[2] = 333.15 K, gas saturation method
[3] = 353.15 K, gas saturation method
[4] = 373.15 K, gas saturation method
[5] = 393.15 K, gas saturation method
[6] = 423.15 K, gas saturation method

Row | Structure (SMILES) | vapor or sublimation pressure [1] [kPa] | vapor or sublimation pressure [2] [kPa] | vapor or sublimation pressure [3] [kPa] | vapor or sublimation pressure [4] [kPa] | vapor or sublimation pressure (381.51 K, Closed cell (Static) method) [kPa] | vapor or sublimation pressure (391.7 K, Closed cell (Static) method) [kPa] | vapor or sublimation pressure [5] [kPa] | vapor or sublimation pressure (401.69 K, Closed cell (Static) method) [kPa] | vapor or sublimation pressure (411.58 K, Closed cell (Static) method) [kPa] | vapor or sublimation pressure (421.43 K, Closed cell (Static) method) [kPa] | vapor or sublimation pressure [6] [kPa]
1 | CCCCOC(=O)c1ccccc1C(=O)OCCCC [dibutyl phthalate] | 2.4e-05 ± 2e-06 | 0.000195 ± 1.5e-05 | 0.001289 ± 0.0001 | 0.006211 ± 0.00057 | 0.0127 ± 0.0007 | 0.0248 ± 0.0009 | 0.02452 ± 0.0019 | 0.0461 ± 0.0013 | 0.0824 ± 0.0021 | 0.1441 ± 0.0028 | 0.151 ± 0.012
2 | CC(C)COC(=O)c1ccccc1C(=O)OCC(C)C [diisobutyl 1,2-benzenedioate] | 4.1e-05 ± 3e-06 | 0.000436 ± 4.3e-05 | 0.002796 ± 0.00025 | 0.01285 ± 0.001 | – | – | 0.0445 ± 0.0035 | – | – | – | 0.2156 ± 0.017
